Measured values reported in patent US20250382303A1, “NOVEL COMPOUND AS NADPH OXIDASE 2 INHIBITOR AND PHARMACEUTICAL COMPOSITION CONTAINING SAME” (DONGGUK UNIVERSITY INDUSTRY-ACADEMIC COOPERATION FOUNDATION, priority 2022, published 2025).

Molecular target: T1, NOX2 (Homo sapiens, UniProt P04839)
T1 construct: Used for the NOX2 activity assay was human leukemia 60 cells (HL-60), which are widely, universally used to assess NOX2 activity; endogenous in cells
T1 sequence (P04839 2-570 limits assumed): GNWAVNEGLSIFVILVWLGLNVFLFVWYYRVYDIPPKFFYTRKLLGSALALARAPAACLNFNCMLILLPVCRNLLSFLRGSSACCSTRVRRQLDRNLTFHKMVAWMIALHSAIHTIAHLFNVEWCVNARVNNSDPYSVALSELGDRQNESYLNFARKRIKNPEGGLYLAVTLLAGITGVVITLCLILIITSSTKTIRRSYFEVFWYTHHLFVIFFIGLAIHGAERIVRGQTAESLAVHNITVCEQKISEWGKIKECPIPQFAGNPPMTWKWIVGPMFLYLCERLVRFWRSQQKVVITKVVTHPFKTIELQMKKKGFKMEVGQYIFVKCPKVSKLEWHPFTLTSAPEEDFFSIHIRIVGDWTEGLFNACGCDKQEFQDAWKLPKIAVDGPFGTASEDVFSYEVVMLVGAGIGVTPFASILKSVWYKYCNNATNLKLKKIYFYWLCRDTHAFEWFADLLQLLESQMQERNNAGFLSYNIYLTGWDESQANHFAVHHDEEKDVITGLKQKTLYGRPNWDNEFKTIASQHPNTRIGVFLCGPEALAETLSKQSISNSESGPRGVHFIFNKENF
T1 sequence (P13498 2-195 partner limits assumed): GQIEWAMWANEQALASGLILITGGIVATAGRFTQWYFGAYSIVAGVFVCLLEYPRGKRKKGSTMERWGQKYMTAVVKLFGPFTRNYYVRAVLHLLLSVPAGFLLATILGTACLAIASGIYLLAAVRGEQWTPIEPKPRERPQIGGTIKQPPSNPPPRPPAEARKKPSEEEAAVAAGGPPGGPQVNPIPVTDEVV
Assay: NOX2 activity assay: PMA-induced ROS in ATRA-differentiated HL-60 cells (WST-1 or Amplex Red/HRP probe)
Format: cell-based
Conditions: for IC50: WST-1 probe, differentiated HL-60, 200 ng/mL PMA, read-out: Inhibitory ability (NOX2); for NOX2 inhibitory ability, verbal rating: WST-1, comment on Table 1; for concentration dependence of NOX2 inhibition: FIG. 1
Experimental: NOX activity was evaluated by measuring the reactive oxygen species (ROS) produced by NOX. The probes that were used to measure ROS were water soluble tetrazolium-1 (WST-1, superoxide-specific colorimetric probe) and Amplex Red/horseradish peroxidase (AR/HRP, hydrogen peroxide-specific fluorometric probe), and the concentration of the probes used was […]. For WST-1, the change in the absorbance at 450 nm was measured, and, for AR, the change in fluorescence signals was measured at 560 nm and 585 nm, respectively for excitation wavelength (Ex) and emission wavelength (Em). The optical signal was measured using the SpectraMax M3 microplate reader from Molecular Devices at 37° C. for 60 minutes.
Used for the NOX2 activity assay was human leukemia 60 cells (HL-60), which are widely, universally used to assess NOX2 activity. 1×10^5 cells/mL of HL-60 were treated with […] all-trans-retinoic acid (ATRA) for 4 days to induce differentiation. Differentiated HL-60 (diff. HL-60) was centrifuged at 200 g for 5 minutes and washed twice with HBSS. Differentiation was induced to reach 3×10^4 cells/well on a 96-well plate (diff). HL-60 was seeded. The test material was treated to cells and left in a 37° C. incubator for 60 minutes. As a control group, the same concentration of DMSO, which is the vehicle of the test material, was used. 200 ng/mL phorbol 12-myristate 13-acetate (PMA) was used as the NOX2 activator, and the production amount of ROS induced by PMA was measured for 60 minutes. […] diphenyleneiodonium (DPI), which is well known to inhibit NOX, was used as a positive control group to evaluate whether the NOX2 activity tester properly operates.

| IC50 [µM] | NOX2 inhibitory ability, verbal rating | SMILES | concentration dependence of NOX2 inhibition |
| --- | --- | --- | --- |
| 1 to 10 | – | C[C@]12C[C@H](NC(=O)N1c1cccc(C(=O)N3CCc4ccccc4C3)c1)c1ccccc1O2 [Compound 10c, (2S,6S)-2-Methyl-3-(3-(1,2,3,4-tetrahydroisoquinoline-2-carbonyl)phenyl)-5,6-dihydro-2H-2,6-methanobenzo[g][1,3,5]oxadiazocin-4(3H)-one] | – |
| > 10 | – | C[C@]12C[C@H](NC(=O)N1c1cccc(C(=O)NCc3cc(Br)cc(Br)c3)c1)c1ccccc1O2 [Compound 10d, N-(3,5-Dibromobenzyl)-3-((2S,6S)-2-methyl-4-oxo-5,6-dihydro-2H-2,6-methanobenzo[g][1,3,5]oxadiazocin-3(4H)-yl)benzamide] | – |
| > 10 | – | CC12CC(NC(=O)N1c1cccc(-c3cccc(C#N)c3)c1)c1ccccc1O2 (centres unmarked) [Compound 15a, 3′-(2-Methyl-4-oxo-5,6-dihydro-2H-2,6-methanobenzo[g][1,3,5]oxadiazocin-3(4H)-yl)-[1,1′-biphenyl]-3-carbonitrile] | – |
| > 10 | – | CC12CC(NC(=O)N1c1cccc(-c3ccco3)c1)c1ccccc1O2 (centres unmarked) [Compound 15b, 3-(3-(Furan-2-yl)phenyl)-2-methyl-5,6-dihydro-2H-2,6-methanobenzo[g][1,3,5]oxadiazocin-4(3H)-one] | – |
| > 10 | – | CN1C(=O)N(c2cccc(-c3ccco3)c2)C2(C)CC1c1ccccc1O2 (centres unmarked) [Compound 16, 3-(3-(Furan-2-yl)phenyl)-2,5-dimethyl-5,6-dihydro-2H-2,6-methanobenzo[g][1,3,5]oxadiazocin-4(3H)-one] | – |
| > 10 | – | CC12CC(NC(=O)N1c1cccc(CNc3cccc(C(F)(F)F)c3)c1)c1ccccc1O2 (centres unmarked) [Compound 19, 2-methyl-3-(3-(((3-(trifluoromethyl)phenyl)amino)methyl)phenyl)-5,6-dihydro-2H-2,6-methanobenzo[g][1,3,5]oxadiazocin-4(3H)-one] | – |
| > 10 | – | CC12CC(NC(=O)N1c1cccc(C(=O)N3CCc4ccccc4C3)c1)c1cc(Br)ccc1O2 (centres unmarked) [Compound 25a, 8-Bromo-2-methyl-3-(3-(1,2,3,4-tetrahydroisoquinoline-2-carbonyl)phenyl)-5,6-dihydro-2H-2,6-methanobenzo[g][1,3,5]oxadiazocin-4(3H)-one] | – |
| > 10 | excellent inhibitory ability | CC12CC(NC(=O)N1c1cccc(C(=O)N3CCc4ccccc4C3)c1)c1cc(C(F)(F)F)ccc1O2 (centres unmarked) [Compound 25b, 2-Methyl-3-(3-(1,2,3,4-tetrahydroisoquinoline-2-carbonyl)phenyl)-8-(trifluoromethyl)-5,6-dihydro-2H-2,6-methanobenzo[g][1,3,5]oxadiazocin-4(3H)-one] | – |
| 1 to 10 | – | CC12CC(NC(=O)N1c1cccc(C(=O)N3CCc4ccccc4C3)c1)c1cc(Cl)ccc1O2 (centres unmarked) [Compound 25c, 8-Chloro-2-methyl-3-(3-(1,2,3,4-tetrahydroisoquinoline-2-carbonyl)phenyl)-5,6-dihydro-2H-2,6-methanobenzo[g][1,3,5]oxadiazocin-4(3H)-one] | – |
| 1 to 10 | – | CC12CC(NC(=O)N1c1cccc(C(=O)N3CCc4ccccc4C3)c1)c1cc(F)ccc1O2 (centres unmarked) [Compound 25d, 8-Fluoro-2-methyl-3-(3-(1,2,3,4-tetrahydroisoquinoline-2-carbonyl)phenyl)-5,6-dihydro-2H-2,6-methanobenzo[g][1,3,5]oxadiazocin-4(3H)-one] | – |
| – | excellent inhibitory ability | COc1ccc2c(c1)C1CC(C)(O2)N(c2cccc(C(=O)N3CCc4ccccc4C3)c2)C(=O)N1 (centres unmarked) [Compound 25e, 8-Methoxy-2-methyl-3-(3-(1,2,3,4-tetrahydroisoquinoline-2-carbonyl)phenyl)-5,6-dihydro-2H-2,6-methanobenzo[g][1,3,5]oxadiazocin-4(3H)-one] | – |
| > 10 | – | CC12CC(NC(=O)N1c1cccc(C(=O)N3CCc4ccccc4C3)c1)c1cccc(Br)c1O2 (centres unmarked) [Compound 25f, 10-Bromo-2-methyl-3-(3-(1,2,3,4-tetrahydroisoquinoline-2-carbonyl)phenyl)-5,6-dihydro-2H-2,6-methanobenzo[g][1,3,5]oxadiazocin-4(3H)-one] | – |
| > 10 | – | COc1cccc2c1OC1(C)CC2NC(=O)N1c1cccc(C(=O)N2CCc3ccccc3C2)c1 (centres unmarked) [Compound 25g, 10-Methoxy-2-methyl-3-(3-(1,2,3,4-tetrahydroisoquinoline-2-carbonyl)phenyl)-5,6-dihydro-2H-2,6-methanobenzo[g][1,3,5]oxadiazocin-4(3H)-one] | – |
| 1 to 10 | – | CC12CC(NC(=O)N1c1cccc(C(=O)N3CCc4ccccc4C3)c1)c1ccc(Br)cc1O2 (centres unmarked) [Compound 25h, 9-Bromo-2-methyl-3-(3-(1,2,3,4-tetrahydroisoquinoline-2-carbonyl)phenyl)-5,6-dihydro-2H-2,6-methanobenzo[g][1,3,5]oxadiazocin-4(3H)-one] | – |
| 1 to 10 | – | CC12CC(NC(=O)N1c1cccc(C(=O)N3CCc4ccccc4C3)c1)c1ccc(C(F)(F)F)cc1O2 (centres unmarked) [Compound 25i, 2-Methyl-3-(3-(1,2,3,4-tetrahydroisoquinoline-2-carbonyl)phenyl)-9-(trifluoromethyl)-5,6-dihydro-2H-2,6-methanobenzo[g][1,3,5]oxadiazocin-4(3H)-one] | – |
| 1 to 10 | – | CC12CC(NC(=O)N1c1cccc(C(=O)N3CCc4ccccc4C3)c1)c1ccc(Cl)cc1O2 (centres unmarked) [Compound 25j, 9-Chloro-2-methyl-3-(3-(1,2,3,4-tetrahydroisoquinoline-2-carbonyl)phenyl)-5,6-dihydro-2H-2,6-methanobenzo[g][1,3,5]oxadiazocin-4(3H)-one] | – |
| > 10 | – | CC12CC(NC(=O)N1c1cccc(C(=O)N3CCc4ccccc4C3)c1)c1ccc(F)cc1O2 (centres unmarked) [Compound 25k, 9-Fluoro-2-methyl-3-(3-(1,2,3,4-tetrahydroisoquinoline-2-carbonyl)phenyl)-5,6-dihydro-2H-2,6-methanobenzo[g][1,3,5]oxadiazocin-4(3H)-one] | – |
| > 10 | – | COc1ccc2c(c1)OC1(C)CC2NC(=O)N1c1cccc(C(=O)N2CCc3ccccc3C2)c1 (centres unmarked) [Compound 25l, 9-Methoxy-2-methyl-3-(3-(1,2,3,4-tetrahydroisoquinoline-2-carbonyl)phenyl)-5,6-dihydro-2H-2,6-methanobenzo[g][1,3,5]oxadiazocin-4(3H)-one] | – |
| 1 to 10 | – | CC12CC(NC(=O)N1c1cccc(C(=O)N3CCc4ccccc4C3)c1)c1c(F)cccc1O2 (centres unmarked) [Compound 25m, 7-Fluoro-2-methyl-3-(3-(1,2,3,4-tetrahydroisoquinoline-2-carbonyl)phenyl)-5,6-dihydro-2H-2,6-methanobenzo[g][1,3,5]oxadiazocin-4(3H)-one] | – |
| < 1 | excellent inhibitory ability | CC12CC(NC(=O)N1c1cccc(C(=O)N3CCc4ccccc4C3)c1)c1cc(-c3ccsc3)ccc1O2 (centres unmarked) [Compound 26a, 2-Methyl-3-(3-(1,2,3,4-tetrahydroisoquinoline-2-carbonyl)phenyl)-8-(thiophen-3-yl)-5,6-dihydro-2H-2,6-methanobenzo[g][1,3,5]oxadiazocin-4(3H)-one] | inhibited NOX2 activity in a concentration-dependent manner |
| < 1 | excellent inhibitory ability | CC12CC(NC(=O)N1c1cccc(C(=O)N3CCc4ccccc4C3)c1)c1cc(-c3ccoc3)ccc1O2 (centres unmarked) [Compound 26b, 8-(Furan-3-yl)-2-methyl-3-(3-(1,2,3,4-tetrahydroisoquinoline-2-carbonyl)phenyl)-5,6-dihydro-2H-2,6-methanobenzo[g][1,3,5]oxadiazocin-4(3H)-one] | inhibited NOX2 activity in a concentration-dependent manner |
